Tests used:
MCF10A cells [1] = settings: treated on days 1 and 2, acini at 9 days (FIG. 15G)
MCF10A cells [2] = experiment: Proliferation of MCF10A cells in three-dimensional culture (Ki67 staining); format: cell-based, human; settings: Gab2-overexpressing MCF10A, days 6 and 15 of culture; UO 15 μM on days 13 and 14 (FIG. 15F)
BaF3 cells = experiment: IL-3-induced c-fos promoter luciferase reporter assay; format: cell-based; settings: IL-3 stimulation
Procedure: Therefore, the role of Gab2 in IL-3-induced c-fos promoter activity was assessed. For c-fos reporter assays, 1.5 μg of c-fos promoter (nt −710 to +42)-luciferase reporter were used (Hu et al., Science 268, 100-102 (1995)). STAT-driven transctivation was measured using 1.5 μg of a GAS-luciferase reporter (Jaster et al., Mol. Cell. Biol. 3364-3372 (1997)). For Elk assays, Gal4-Elk-1 (2 μg) and Gal4-luciferase (1 μg) were used (Bennett et al., Mol. Cell. Biol. 16, 1189-1202 (1996)). Cells were electroporated at 300V/800 μF, transferred to fresh RPMI/10% WEHI supernatant/10% FCS and, after three hours, were starved in RPMI/10% FCS. Twelve hours post-transfection, transfected cells (approximately 10^6/condition) were incubated in RPMI/10% FCS alone or with murine IL-3 (1 ng/ml) for two hours. Luciferase assays were performed with a kit (Promega, Madison, Wis.). Promoter activities were normalized to Renilla luciferase levels.

SMILES | cooperation of Gab2 with Neu (MCF10A cells [1]) | effects of Gab2 overexpression on the proliferation of MCF10A (MCF10A cells [2]) | IL-3-induced c-fos luciferase activity (BaF3 cells)
N#CC(=C(/N)Sc1ccccc1N)/C(C#N)=C(/N)Sc1ccccc1N [UO126] | blocked | abolished | 
COc1cccc(-c2cc(=O)c3ccccc3o2)c1N [PD98059] |  |  | ablated

Source: US20060265769A1, “Gab2 (p97) gene and methods of use thereof” (Beth Israel Deaconess Medical Center, Inc., priority 2000, published 2006)
